Consider one compound from PMC7581941, “Schedule-Dependent Synergy Between the Histone Deacetylase Inhibitor Belinostat and the Dihydrofolate Reductase Inhibitor Pralatrexate in T-and B-cell Lymphoma Cells in vitro” (Frontiers in Cell and Developmental Biology, 2020).

SMILES strings stand for the structures. Where two headings read alike, the source gives them in different places.

Experiment [1] concerns lymphoma cell lines. The experiment is described as follows: Cell growth inhibition and median-drug effect analysis, panel of lymphoma cell lines. The experiment is classed as cell-based. The procedure: (§1) Cells were plated in 96-wells flat bottom plates, at 3,000 or 6,000 cells per well in culture medium (75 μL/well) or in 24-wells plates (60,000 cells/well) for the counting assays for which a Coulter Counter was used. Cells were treated immediately with a drug dilution series in cell culture medium (75 μL/well). […] After incubation for 3 h in the 5% CO2 incubator with 100% humidity at 37°C, 150 μL acidified 2-propanol was added to the plates to dissolve the formazan crystals. The yellow-colored MTT stock solution is taken up and reduced to a purple formazan in living cells, which directly correlates to the amount of viable cells. As final step, the plates were measured at 540 (or 492) nm by the SPECTRAfluor spectrophotometer. […] Drug interaction in combination experiments was evaluated using the median-drug effect analysis using CalcuSyn software ([Bijnsdorp et al., 2011]). […] The means of the separate experiments were subsequently averaged so that a mean ± Standard Error of the Mean (SEM) was calculated from three or more separate experiments. […] Drug combinations were designed based on the standard CalcuSyn approach in which a series of drug concentrations were combined in a fixed molar ratio, based on the IC50 of each drug. A variation of this approach was a sequential scheduling in which cells were exposed for 72 h to BLS, while in the combination PLX was added after 24 h and cells were exposed from 24 to 72 h.

Experiment [2] has as its system SUDHL-4 cells. The experiment is described as follows: FACS propidium iodide staining: cell death, SUDHL-4. The format is cell-based. Particulars: drugs at their IC50, untreated 5.0%. The procedure: (§2) Propidium iodide staining (DNA staining) was used to determine cell cycle distribution and the extent of cell death. Cells (120,000 per well in a 24-wells plate) were exposed to PLX or BLS or the combination for 24, 48, or 72 h. Cells were harvested, suspended in 1.0 ml phosphate buffered saline/1% Bovine serum albumin and fixed with 70% ethanol. After centrifugation the pellet was resuspended in hypotonic propidium iodide (0.1 mg/ml), Triton-X-100 (0.1%), sodium citrate (1 mg/ml) and RNAse A (0.5 mg/ml) (final concentrations in saline) and stored in dark on ice for 30 min ([De Wilt et al., 2012]). DNA content of the cells to determine cell cycle effects and cell kill was analyzed by a FACScalibur (Becton Dickinson Immunocytometry Systems, San Jose, CA, United States) with an acquisition of 10,000 events as described previously ([De Wilt et al., 2012]).

Experiment [3] concerns Karpas-299. The experiment is described as follows: Cell growth inhibition (MTT) and median-drug effect analysis, Karpas-299. The format is cell-based. Particulars: Homo sapiens, read-out: IC50 (50% growth inhibition); Karpas-299, 72 h exposure. On the procedure:
(§3) Cells were treated immediately with a drug dilution series in cell culture medium (75 μL/well). After an incubation period of approximately 72 h, growth in the 96-wells plates was assessed by adding 15 μL MTT solution (stock solution 5 mg/ml in PBS, final concentration 0.5 mg/ml in culture medium) to each well. After incubation for 3 h in the 5% CO2 incubator with 100% humidity at 37°C, 150 μL acidified 2-propanol was added to the plates to dissolve the formazan crystals. The yellow-colored MTT stock solution is taken up and reduced to a purple formazan in living cells, which directly correlates to the amount of viable cells. As final step, the plates were measured at 540 (or 492) nm by the SPECTRAfluor spectrophotometer.
(§4) Drug interaction in combination experiments was evaluated using the median-drug effect analysis using CalcuSyn software ([Bijnsdorp et al., 2011]). In order to evaluate combination indexes [CI] from different experiments, the CI values at Fraction Affected (FA) values >0.5 (preferably around 0.5, 0.75, and 0.9) were averaged for each specific experiment. The means of the separate experiments were subsequently averaged so that a mean ± Standard Error of the Mean (SEM) was calculated from three or more separate experiments. […]

In experiment [4] the test system is SUDHL-4 cells. In words: Cell growth inhibition (cell counting) and median-drug effect analysis, SUDHL-4. The experiment is classed as cell-based. Particulars: Homo sapiens, SU-DHL-4, read-out: IC50 (50% growth inhibition); SUDHL 4, 72 h exposure.
Experiment [5] relates to SUDHL-5 cells. The experiment is described as follows: Cell growth inhibition (MTT) and median-drug effect analysis, SUDHL-5. Particulars: Homo sapiens, SU-DHL-5, read-out: IC50 (50% growth inhibition); SUDHL 5, 72 h exposure. The experiment is classed as cell-based. On the procedure:
as §3
Drug interaction in combination experiments was evaluated using the median-drug effect analysis using CalcuSyn software ([Bijnsdorp et al., 2011]). In order to evaluate combination indexes [CI] from different experiments, the CI values at Fraction Affected (FA) values >0.5 (preferably around 0.5, 0.75, and 0.9) were averaged for each specific experiment. The means of the separate experiments were subsequently averaged so that a mean ± Standard Error of the Mean (SEM) was calculated from three or more separate experiments. […] Drug combinations were designed based on the standard CalcuSyn approach in which a series of drug concentrations were combined in a fixed molar ratio, based on the IC50 of each drug. A variation of this approach was a sequential scheduling in which cells were exposed for 72 h to BLS, while in the combination PLX was added after 24 h and cells were exposed from 24 to 72 h. In the non-fixed ratio approach one drug was used at the IC25 (concentration that results in 25% growth inhibition) and the other drug was added in a concentration range.

The test system of experiment [6] is Hut-29. In words: Cell growth inhibition (MTT) and median-drug effect analysis, Hut-29. The format is cell-based. Particulars: read-out: IC50 (50% growth inhibition); Hut-29, 72 h exposure. On the procedure:
as §3, §4

Experiment [7] concerns CCRF-CEM. In words: Cell growth inhibition (MTT), CCRF-CEM. The format is cell-based, human. Particulars: Homo sapiens, read-out: IC50 (50% growth inhibition); CCRF-CEM, 72 h exposure. The procedure: as §3
The subject of experiment [8] is Jeko-1. In words: Cell growth inhibition (MTT) and median-drug effect analysis, Jeko-1. The experiment is classed as cell-based. Particulars: Homo sapiens, read-out: IC50 (50% growth inhibition); Jeko-1, 72 h exposure. The procedure:
as §1, with “A variation of this approach was a sequential scheduling in which cells were exposed for 72 h to BLS, while in the combination PLX was added after 24 h and cells were exposed from 24 to 72 h.” left out

Experiment [9] deals with HT cells. In words: FACS propidium iodide staining: cell cycle distribution and cell death, HT. The format is cell-based. The procedure: as §2
Experiment [10] has as its system HT cells. The experiment is described as follows: Cell growth inhibition (cell counting) and median-drug effect analysis, HT. Particulars: for IC50: HT. The format is cell-based.

With `O=C(/C=C/c1cccc(S(=O)(=O)Nc2ccccc2)c1)NO` [BLS, Belinostat], the IC50 was 72 to 233 nM in experiment [1] (72 hr exposure, panel of cell lines, read-out: IC50, range over the cell lines); 203 ± 21 nM in [3]; 72.3 ± 5 nM in experiment [4]; 112 ± 15 nM in [5]; 97 ± 12 nM in experiment [6]; 95.8 ± 16.1 nM in experiment [7]. In addition, the IC50 in experiment [8] is 103 ± 11 nM; in experiment [10] (Homo sapiens, 72 h, read-out: IC50 (50% growth inhibition), HT, 72 h exposure), around 220 nM; in experiment [10] (read-out: IC50 (50% growth inhibition), 72 h exposure), 223 ± 23 nM. Further, the “effect of l-LV on sensitivity to BLS” value in experiment [1] (data not shown) is on record as “did not affect sensitivity”. The “accumulation of cells in the sub-G1 phase (cell death)” value in experiment [2] amounted to 15.5%; in experiment [9] (drugs at their IC50, untreated 3.5%) it was 21%. Further, the “accumulation of cells in the S-phase” value in experiment [9] (72 h exposure at IC50) is given as “more pronounced”. For the same compound, in experiment [10] (HT cells, 72 h), the “IC25 (concentration that results in 25% growth inhibition)” value was around 100 nM.

The term IC50 denotes the midpoint of a concentration-inhibition curve.
